Assays:
human skin explants [1] = assay: Ki67 immunohistochemistry (cell proliferation marker) in skin explants; type: cell-based; details: 20 ng/ml in Medium 1, 37° C., grade 1-5, 5 = normal level prior to culture
Description: (§1) Skin explant cultures were established as described in Example 1, using Medium 1. Explants were incubated at 37° C. in a 5% CO2 atmosphere. Skin explants either remained untreated or were treated, in Medium 1, with TGF-β, an agent known to increase elastin production. Media were refreshed daily. After predetermined time periods, the skin explants were harvested, and processed for histological, immunohistochemical, and gene expression evaluation as follows. • 1. LUNA staining was used to document elastin fibers histologically, as described in Kligman, Am. J. of Dermatopathology, 3(2): 199-201, 1981. The grading of elastin fiber quality ranged from 1-5, when 5 represented best fiber quality. • 2. Ki67 was used as a marker for cell proliferation, using immunohistochemistry techniques with a rabbit monoclonal antibody for Ki67, purchased from Thermo Scientific (Pittsburgh, Pa.). Immunohistochemistry staining was performed according to manufacturer's instructions. The grading of Ki67 ranged from 1-5, when 5 represented normal Ki67 level in the skin sample prior to culture. • 3. Levels of elastin gene expression (mRNA levels) were evaluated by QPCR. Total RNA was extracted from skin explants using Trizol (Invitrogen, Carlsbad Calif.) according to manufacturer's instructions. […]

human skin explants [2] = assay: LUNA staining of elastin fibers in skin explants; type: cell-based; details: 20 ng/ml in Medium 1, 37° C., grade 1-5, 5 = best fiber quality
Description: as §1

elastin gene expression = assay: Elastin gene expression (mRNA) by QPCR in skin explants; type: cell-based, human; details: 20 ng/ml
Description: as §1

[3] = test system: subcutaneous adipose layer of skin explants; assay: Lipogenesis: triglyceride synthesis from C-14 acetate in subcutaneous fat of skin explants (HPTLC); type: cell-based, human; details: 20 μM in medium, untreated control 100%
Description: (§2) To examine the metabolic activity of the subcutaneous adipose layer, explant cultures were established as described in Example 1, using optimized media with 5% serum. After overnight incubation, skin explants remained untreated or were treated with 20 μM of rosiglitazone or with 50 μM of conjugated linoleic acid in the media, for the evaluation of their effect on lipogenesis and lipolysis of subcutaneous adipose layer. Explants were incubated at 37° C. in a 5% CO2 atmosphere.
For assessing lipogenesis, skin explants were cultured in medium containing 20 μM of rosiglitazone and C-14 labeled acetate for 24 hours. Subcutaneous fat was then harvested, and the levels of triglyceride were determined by HPTLC as described in (Pappas et al., JID 118 (1) 164-171, 2002).

[4] = test system: subcutaneous adipose layer of skin explants; assay: Lipolysis: glycerol released into culture media of skin explants; type: cell-based, human; details: 50 μM in medium, untreated control 100%
Description: as §2
For evaluating lipolysis, skin explants were cultured in medium containing 50 μM of conjugated linoleic acid, and culture media were collected at indicated time points. The levels of glycerol released into the media were determined using the free glycerol reagent and kit (Sigma), which was used according to manufacture instruction.

For TGF-β, the “Ki67 Proliferation marker (grade)” value (human skin explants [1]; Day 5) was 4, the “Ki67 Proliferation marker (grade)” value (human skin explants [1]; Day 7) was 4 and the “LUNA staining Elastin fibers (grade)” value (human skin explants [2]; Day 5) was 3. For the same compound, the “LUNA staining Elastin fibers (grade)” value (human skin explants [2]; Day 7) was 4, the “Elastin mRNA (QPCR)” value (elastin gene expression; Day 5, untreated control normalized to 100%) was 369% and the “Elastin mRNA (QPCR)” value (elastin gene expression; Day 7, untreated control Day 5 = 100% (Day 7 control 243%)) was 423%.

In the case of CN(CCOc1ccc(CC2SC(=O)NC2=O)cc1)c1ccccn1 (centres unmarked) [Rosiglitazone, rosiglitazone], the “Triglyceride synthesis at 24 hr (lipogenesis)” value [3] is reported as 240-270%.

With conjugated linoleic acid the “Glyceral release at day 3 (lipolysis)” value [4] was 140%.
